Assay results from ChEMBL document CHEMBL4483862, “Open-source discovery of chemical leads for next-generation chemoprotective antimalarials” (2018).

System: Plasmodium berghei
Experiment: Luciferase/luciferin-expressing antifolate-resistant parasites were used to infect a culture of HepG2 cells that were pre-incubated with compounds. Infected hepatocytes emit light due to the luciferase reaction. Assay results are presented as the percent inhibition of light emission compared to control. […]
Format: functional
Conditions: sporozoite; for IC90: read-out: LUCIFERASE INFECTION ASSAY - IC90

Compound	IC90 [µM]	other results
CC(C)(C)c1ccc(-c2cnc3cnc(-c4ccc(N)nc4)cn23)cc1	4.41	IC50 (PBLUC_HILL_SLOPE 8.01, PBLUC_R_SQUARED 0.801, read-out: LUCIFERASE INFECTION ASSAY - IC50): 3.35 µM
CN(C)C(=O)c1ccc(-c2cnc3cnc(-c4ccccc4Oc4ccccc4)cn23)cc1	3.65	IC50 (PBLUC_HILL_SLOPE 8.03, PBLUC_R_SQUARED 0.291, read-out: LUCIFERASE INFECTION ASSAY - IC50): 2.77 µM
CS(=O)(=O)Nc1cccc(-c2cnc3ccc(Cc4ccc(F)cc4)nn23)c1	5.12	IC50 (PBLUC_HILL_SLOPE 7.81, PBLUC_R_SQUARED 0.241, read-out: LUCIFERASE INFECTION ASSAY - IC50): 3.87 µM
CCOC(=O)c1[nH]c(CN2CCN(c3ccccc3)CC2)c(C(=O)OCC)c1C	> 10	IC50 (PBLUC_HILL_SLOPE 7.85, PBLUC_R_SQUARED 0.611, read-out: LUCIFERASE INFECTION ASSAY - IC50): 8.25 µM
CSc1sc(NC(=O)Nc2ccc(Cl)cc2)cc1S(=O)(=O)C(C)C	> 8.15	IC50 (PBLUC_HILL_SLOPE 7.91, PBLUC_R_SQUARED 0.357, read-out: LUCIFERASE INFECTION ASSAY - IC50): 6.79 µM
O=C(Nc1nc(-c2c[nH]c3ccccc23)cs1)c1cc(=O)[nH]c2ccccc12	> 10	IC50 (PBLUC_HILL_SLOPE 7.71, PBLUC_R_SQUARED 0.559, read-out: LUCIFERASE INFECTION ASSAY - IC50): 9.23 µM
C(=N\c1ccccc1-n1cccc1)/c1cnc(-c2ccccc2)[nH]1	> 10.6	IC50 (PBLUC_HILL_SLOPE 8.03, PBLUC_R_SQUARED 0.709, read-out: LUCIFERASE INFECTION ASSAY - IC50): > 10.6 µM
COCCCN1C(=O)N(Cc2ccccc2)C(=O)C12CCN(CCC(C)c1ccc(C)o1)CC2 (stereo not given)	> 7.06	IC50 (PBLUC_HILL_SLOPE 7.49, PBLUC_R_SQUARED 0.22, read-out: LUCIFERASE INFECTION ASSAY - IC50): 6.36 µM
COC(=O)c1cc(NC(=O)Nc2cc(Cl)cc(Cl)c2)ccc1N1CCOCC1	4.16	IC50 (PBLUC_HILL_SLOPE 7.3, PBLUC_R_SQUARED 0.704, read-out: LUCIFERASE INFECTION ASSAY - IC50): 3.08 µM
COc1ccc(-c2cc([N+](=O)[O-])ccc2OC(C)C(=O)N2CCC(C)CC2)cc1 (stereo not given)	4.24	IC50 (PBLUC_HILL_SLOPE 7.12, PBLUC_R_SQUARED 0.553, read-out: LUCIFERASE INFECTION ASSAY - IC50): 3.11 µM
CN(C)C(=O)Oc1ccc2c(-c3ccccc3)cc(=O)oc2c1	> 10.7	IC50 (PBLUC_HILL_SLOPE 7.62, PBLUC_R_SQUARED 0.0613, read-out: LUCIFERASE INFECTION ASSAY - IC50): > 10.7 µM
NC(=O)C1CCN(c2cc(-c3nc4ccccc4s3)c3ccccc3n2)CC1	> 10	IC50 (PBLUC_HILL_SLOPE 7.92, PBLUC_R_SQUARED 0.452, read-out: LUCIFERASE INFECTION ASSAY - IC50): 8.36 µM
O=C(NCCOc1ccc2ccccc2c1)c1ccccc1O	> 10	IC50 (PBLUC_HILL_SLOPE 7.72, PBLUC_R_SQUARED 0.601, read-out: LUCIFERASE INFECTION ASSAY - IC50): 9.34 µM
Cc1ccc(C(=O)OC(C)C(=O)N2CCCC2)cc1S(=O)(=O)N1CCCCC1 (stereo not given)	1.37	IC50 (PBLUC_HILL_SLOPE 7.98, PBLUC_R_SQUARED 0.937, read-out: LUCIFERASE INFECTION ASSAY - IC50): 1.04 µM
Cc1nn(-c2ccccc2)c(C)c1C(=O)ONC(=N)c1cccc(Cl)c1	> 8.95	IC50 (PBLUC_HILL_SLOPE 7.89, PBLUC_R_SQUARED 0.243, read-out: LUCIFERASE INFECTION ASSAY - IC50): 7.68 µM
O=[N+]([O-])c1ccc(Oc2c(Cl)cc(S(=O)(=O)N3CCCCC3)cc2Cl)c(Cl)c1	> 7.09	IC50 (PBLUC_HILL_SLOPE 7.39, PBLUC_R_SQUARED 0.0349, read-out: LUCIFERASE INFECTION ASSAY - IC50): > 7.09 µM
NNC(=S)c1cc(Cl)cc(Cl)c1	7.72	IC50 (PBLUC_HILL_SLOPE 7.79, PBLUC_R_SQUARED 0.6, read-out: LUCIFERASE INFECTION ASSAY - IC50): 5.82 µM
Fc1ccc(-c2nc(CSc3nc(NC4CC4)c4ccccc4n3)cs2)cc1	4.9	IC50 (PBLUC_HILL_SLOPE 8, PBLUC_R_SQUARED 0.651, read-out: LUCIFERASE INFECTION ASSAY - IC50): 3.72 µM
Cc1sc2nc(-c3cccnc3)nc(N(C)Cc3cccnc3)c2c1C	9.64	IC50 (PBLUC_HILL_SLOPE 7.84, PBLUC_R_SQUARED 0.586, read-out: LUCIFERASE INFECTION ASSAY - IC50): 7.28 µM
O=C(Nc1cccc(C(F)(F)F)c1)Nc1ccc2nc(-c3ccc(F)c(Cl)c3)nn2c1	5.2	IC50 (PBLUC_HILL_SLOPE 7.54, PBLUC_R_SQUARED 0.257, read-out: LUCIFERASE INFECTION ASSAY - IC50): 3.88 µM

Compound	IC90 [µM]	other results
O=C(Cn1c(=O)oc2ccccc21)N1CCCC1c1nc2ccccc2s1 (stereo not given)	> 10	IC50 (PBLUC_HILL_SLOPE 7.81, PBLUC_R_SQUARED 0.364, read-out: LUCIFERASE INFECTION ASSAY - IC50): 8.38 µM
CC(C)(NCC(=O)Nc1ccccc1C(N)=O)c1ccc2c(c1)OCO2	> 10	IC50 (PBLUC_HILL_SLOPE 7.96, PBLUC_R_SQUARED 0.17, read-out: LUCIFERASE INFECTION ASSAY - IC50): > 10 µM
COC(=O)c1cc(CNCC(O)COc2ccc(C(C)(C)CC(C)(C)C)cc2)ccc1OC (stereo not given)	4.63	IC50 (PBLUC_HILL_SLOPE 7.71, PBLUC_R_SQUARED 0.722, read-out: LUCIFERASE INFECTION ASSAY - IC50): 3.48 µM
N#C/C(=N\Nc1cccc(Cl)c1Cl)C(N)=S	> 12.1	IC50 (PBLUC_HILL_SLOPE 7.41, PBLUC_R_SQUARED 0.441, read-out: LUCIFERASE INFECTION ASSAY - IC50): > 12.1 µM
CC(C)(C)OC(=O)NC1CCN(C(=O)Nc2cc(Cl)cc(Cl)c2)CC1	> 8.5	IC50 (PBLUC_HILL_SLOPE 7.08, PBLUC_R_SQUARED 0.106, read-out: LUCIFERASE INFECTION ASSAY - IC50): > 8.5 µM
Cc1ccc(NC(=O)Nc2ccc3nc(-c4ccsc4)nn3c2)cc1	> 10	IC50 (PBLUC_HILL_SLOPE 7.59, PBLUC_R_SQUARED 0.413, read-out: LUCIFERASE INFECTION ASSAY - IC50): 8.75 µM
OC(c1ccc(Cl)cc1)c1nnc(Nc2ccc(Oc3ccccc3)cc2)s1 (stereo not given)	> 10	IC50 (PBLUC_HILL_SLOPE 7.15, PBLUC_R_SQUARED 0.699, read-out: LUCIFERASE INFECTION ASSAY - IC50): 8.48 µM
CNc1nc2cnc(Nc3ccc(OC(F)(F)F)cc3)cc2n1-c1cccc(C(F)(F)F)c1	> 10	IC50 (PBLUC_HILL_SLOPE 7.78, PBLUC_R_SQUARED 0.568, read-out: LUCIFERASE INFECTION ASSAY - IC50): 8 µM
CCOC(=O)c1c(-c2csc(Nc3ccccn3)n2)c(C)n(CC)c1C	> 10	IC50 (PBLUC_HILL_SLOPE 7.74, 2.96, PBLUC_R_SQUARED 0.584, 0.552, read-out: LUCIFERASE INFECTION ASSAY - IC50): 9.4 µM
O=C(Nc1nc2c(-c3ccccc3)c(C(F)(F)F)sc2s1)c1ccc(Cl)cc1	> 7.52	IC50 (PBLUC_HILL_SLOPE 7.81, PBLUC_R_SQUARED 0.676, read-out: LUCIFERASE INFECTION ASSAY - IC50): 6.32 µM
CC(OC(=O)CCc1nc2cc(Cl)ccc2n(Cc2ccccc2)c1=O)C(=O)N1CCCC1 (stereo not given)	5	IC50 (PBLUC_HILL_SLOPE 7.3, PBLUC_R_SQUARED 0.693, read-out: LUCIFERASE INFECTION ASSAY - IC50): 3.7 µM
O=C(Nc1ccccc1-c1nc(=O)c2ccccc2[nH]1)C12CC3CC(CC(C3)C1)C2	> 10	IC50 (PBLUC_HILL_SLOPE 7.56, PBLUC_R_SQUARED 0.487, read-out: LUCIFERASE INFECTION ASSAY - IC50): 9.01 µM
COc1ccc(Br)cc1/C=C/C(=O)c1ccc(OCC#N)cc1	> 10	IC50 (PBLUC_HILL_SLOPE 7.84, PBLUC_R_SQUARED 0.11, read-out: LUCIFERASE INFECTION ASSAY - IC50): 9.52 µM
COC(=O)c1ccc(NC(=O)c2ccc(-c3cccc(Br)c3)nc2C)s1	> 10	IC50 (PBLUC_HILL_SLOPE 7.52, PBLUC_R_SQUARED 0.673, read-out: LUCIFERASE INFECTION ASSAY - IC50): 9.09 µM
Cc1ccccc1-c1cn2c(-c3ccc(Cl)cc3)cnc2cn1	5.18	IC50 (PBLUC_HILL_SLOPE 7.25, PBLUC_R_SQUARED 0.317, read-out: LUCIFERASE INFECTION ASSAY - IC50): 3.83 µM
CCCn1c(NC(=O)C2CCCCN2S(=O)(=O)c2ccccc2)nc2ccccc21 (stereo not given)	7.71	IC50 (PBLUC_HILL_SLOPE 7.3, PBLUC_R_SQUARED 0.749, read-out: LUCIFERASE INFECTION ASSAY - IC50): 5.71 µM
CC1(C)CC2CC(C)(CN2C(=O)CN2CCN(c3cccc(C(F)(F)F)c3)CC2)C1 (stereo not given)	> 10	IC50 (PBLUC_HILL_SLOPE 7.96, PBLUC_R_SQUARED 0.534, read-out: LUCIFERASE INFECTION ASSAY - IC50): 9.19 µM
CC(C)(C)c1ccc(-c2cnc3cnc(-c4cccnc4)cn23)cc1	5.11	IC50 (PBLUC_HILL_SLOPE 7.55, PBLUC_R_SQUARED 0.755, read-out: LUCIFERASE INFECTION ASSAY - IC50): 3.82 µM
COc1ccc(-c2cnc3cnc(-c4cccc(C)c4C)cn23)cn1	> 9.99	IC50 (PBLUC_HILL_SLOPE 7.63, PBLUC_R_SQUARED 0.171, read-out: LUCIFERASE INFECTION ASSAY - IC50): 8.65 µM
Cc1nc(-c2ccccn2)nc(NCCc2ccccc2)c1Cl	5.38	IC50 (PBLUC_HILL_SLOPE 7.11, PBLUC_R_SQUARED 0.141, read-out: LUCIFERASE INFECTION ASSAY - IC50): 3.95 µM
